Test results from PubChem BioAssay (NCI).
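A five-concentration, 48-hour dose response in 96-well plates underlies each endpoint, interpolated linearly between surrounding concentrations. GI50 marks 50% less growth. The concentration for full growth arrest is given as TGI.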

Columns and labels:
Assay in all cases: DTP human tumour cell line panel, 48 h
HCC-2998 colon = test system: HCC-2998 colon
HCT-116 colon = test system: HCT-116 colon
HCT-15 colon = test system: HCT-15 colon
HT29 colon = test system: HT29 colon
IGROV1 ovarian = test system: IGROV1 ovarian
K-562 leukemia = test system: K-562 leukemia
KM12 colon = test system: KM12 colon
M14 melanoma = test system: M14 melanoma
MCF7 breast = test system: MCF7 breast
MDA-MB-231 breast = test system: MDA-MB-231 breast
NCI-H226 lung = test system: NCI-H226 lung
OVCAR-5 ovarian = test system: OVCAR-5 ovarian
SK-MEL-28 melanoma = test system: SK-MEL-28 melanoma
SN12C renal = test system: SN12C renal
SR leukemia = test system: SR leukemia
SW-620 colon = test system: SW-620 colon
UACC-257 melanoma = test system: UACC-257 melanoma
786-0 renal = test system: 786-0 renal
A498 renal = test system: A498 renal
A549 NSCLC = test system: A549 NSCLC
ACHN renal = test system: ACHN renal
BT-549 breast = test system: BT-549 breast
CAKI-1 renal = test system: CAKI-1 renal
COLO 205 colon = test system: COLO 205 colon
DU-145 prostate = test system: DU-145 prostate
EKVX NSCLC = test system: EKVX NSCLC
HL-60(TB) leukemia = test system: HL-60(TB) leukemia
HOP-62 NSCLC = test system: HOP-62 NSCLC
HOP-92 NSCLC = test system: HOP-92 NSCLC
HS 578T breast = test system: HS 578T breast
LOX IMVI melanoma = test system: LOX IMVI melanoma
MDA-MB-435 = test system: MDA-MB-435
MOLT-4 leukemia = test system: MOLT-4 leukemia
NCI-H23 lung = test system: NCI-H23 lung
NCI-H460 lung = test system: NCI-H460 lung
NCI-H522 lung = test system: NCI-H522 lung
NCI/ADR-RES ovarian = test system: NCI/ADR-RES ovarian
OVCAR-3 ovarian = test system: OVCAR-3 ovarian
OVCAR-4 ovarian = test system: OVCAR-4 ovarian
OVCAR-8 ovarian = test system: OVCAR-8 ovarian
PC-3 prostate = test system: PC-3 prostate
RPMI-8226 leukemia = test system: RPMI-8226 leukemia
RXF 393 renal = test system: RXF 393 renal
SF-268 CNS = test system: SF-268 CNS
SF-295 CNS = test system: SF-295 CNS
SF-539 CNS = test system: SF-539 CNS
SK-MEL-2 melanoma = test system: SK-MEL-2 melanoma
SK-MEL-5 melanoma = test system: SK-MEL-5 melanoma
SK-OV-3 ovarian = test system: SK-OV-3 ovarian
SNB-19 CNS = test system: SNB-19 CNS
SNB-75 CNS = test system: SNB-75 CNS
TK-10 renal = test system: TK-10 renal
U251 CNS = test system: U251 CNS
UACC-62 melanoma = test system: UACC-62 melanoma
UO-31 renal = test system: UO-31 renal

## COc1ccc(CN2c3ccccc3Sc3ccccc32)c(F)c1
HCC-2998 colon
  GI50: 5.06 µM
  TGI: > 100 µM
HCT-116 colon
  GI50: 0.0398 µM
  TGI: > 100 µM
HCT-15 colon
  GI50: 0.0379 µM
  TGI: > 100 µM
HT29 colon
  GI50: 0.035 µM
  TGI: > 100 µM
IGROV1 ovarian
  GI50: 4.56 µM
  TGI: > 100 µM
K-562 leukemia
  GI50: 0.038 µM
  TGI: > 100 µM
KM12 colon
  GI50: 0.0432 µM
  TGI: > 100 µM
M14 melanoma
  GI50: 0.0381 µM
  TGI: > 100 µM
MCF7 breast
  GI50: 0.0327 µM
  TGI: > 100 µM
MDA-MB-231 breast
  GI50: 5.09 µM
  TGI: > 100 µM
NCI-H226 lung
  GI50: 13 µM
  TGI: > 100 µM
OVCAR-5 ovarian
  GI50: 4.39 µM
  TGI: > 100 µM
SK-MEL-28 melanoma
  GI50: 5.05 µM
  TGI: > 100 µM
SN12C renal
  GI50: 10.6 µM
  TGI: > 100 µM
SR leukemia
  GI50: 0.0596 µM
  TGI: > 100 µM
SW-620 colon
  GI50: 0.0363 µM
  TGI: > 100 µM
UACC-257 melanoma
  GI50: > 100 µM
  TGI: > 100 µM

## Fc1ccc2c(c1)C1=NN(c3ccccc3)C(F)C1CO2 (stereo unspecified)
786-0 renal
  GI50: 12.8 µM
  TGI: > 50 µM
A498 renal
  GI50: 11.4 µM
  TGI: 21 µM
A549 NSCLC
  GI50: 7.96 µM
  TGI: 23.9 µM
ACHN renal
  GI50: 8.94 µM
  TGI: 22.7 µM
BT-549 breast
  GI50: 10.4 µM
  TGI: 22.2 µM
CAKI-1 renal
  GI50: 6.41 µM
  TGI: 20.2 µM
COLO 205 colon
  TGI: 30.9 µM
DU-145 prostate
  GI50: 5.18 µM
  TGI: 21.8 µM
EKVX NSCLC
  GI50: 5.64 µM
  TGI: 16.4 µM
HCT-116 colon
  GI50: 10.7 µM
  TGI: > 50 µM
HCT-15 colon
  GI50: 8.19 µM
  TGI: 19.9 µM
HL-60(TB) leukemia
  GI50: 17.9 µM
  TGI: > 50 µM
HOP-62 NSCLC
  GI50: 19 µM
  TGI: > 50 µM
HOP-92 NSCLC
  GI50: 9.55 µM
  TGI: 23.7 µM
HS 578T breast
  GI50: 10.6 µM
  TGI: 28.1 µM
HT29 colon
  GI50: 10 µM
  TGI: 26.3 µM
IGROV1 ovarian
  GI50: 15.2 µM
  TGI: > 50 µM
K-562 leukemia
  GI50: 17.6 µM
  TGI: > 50 µM
KM12 colon
  GI50: 16.1 µM
  TGI: 45.6 µM
LOX IMVI melanoma
  GI50: 10.5 µM
  TGI: 24.1 µM
M14 melanoma
  GI50: 8.16 µM
  TGI: 18.6 µM
MCF7 breast
  GI50: 9.41 µM
  TGI: > 50 µM
MDA-MB-231 breast
  GI50: 5.36 µM
  TGI: 13.6 µM
MDA-MB-435
  GI50: 6.7 µM
  TGI: 15.9 µM
MOLT-4 leukemia
  GI50: > 50 µM
  TGI: > 50 µM
NCI-H226 lung
  GI50: 8.08 µM
  TGI: 19.1 µM
NCI-H23 lung
  GI50: 11.2 µM
  TGI: 26.7 µM
NCI-H460 lung
  GI50: 10.5 µM
  TGI: > 50 µM
NCI-H522 lung
  GI50: > 50 µM
  TGI: > 50 µM
NCI/ADR-RES ovarian
  GI50: 7.57 µM
  TGI: 18.9 µM
OVCAR-3 ovarian
  GI50: 6.14 µM
  TGI: 19.1 µM
OVCAR-4 ovarian
  GI50: 7.72 µM
  TGI: 17.4 µM
OVCAR-5 ovarian
  GI50: 18.1 µM
  TGI: > 50 µM
OVCAR-8 ovarian
  GI50: 9.04 µM
  TGI: 27.3 µM
PC-3 prostate
  GI50: 11.1 µM
  TGI: > 50 µM
RPMI-8226 leukemia
  GI50: 9.04 µM
  TGI: 33.4 µM
RXF 393 renal
  GI50: 7.33 µM
  TGI: 41.4 µM
SF-268 CNS
  GI50: 7.52 µM
  TGI: 23.2 µM
SF-295 CNS
  GI50: 6.45 µM
  TGI: 17.1 µM
SF-539 CNS
  GI50: 6.62 µM
  TGI: 14.9 µM
SK-MEL-2 melanoma
  GI50: 19.4 µM
  TGI: > 50 µM
SK-MEL-28 melanoma
  GI50: 9.51 µM
  TGI: 22 µM
SK-MEL-5 melanoma
  GI50: 8.48 µM
  TGI: 16.2 µM
SK-OV-3 ovarian
  GI50: 25.3 µM
  TGI: > 50 µM
SN12C renal
  GI50: 6.93 µM
  TGI: 14.7 µM
SNB-19 CNS
  GI50: 26.6 µM
  TGI: > 50 µM
SNB-75 CNS
  GI50: 9.01 µM
  TGI: 32 µM
SR leukemia
  GI50: 25.7 µM
  TGI: > 50 µM
SW-620 colon
  GI50: 9.95 µM
  TGI: 23.6 µM
TK-10 renal
  GI50: 12.5 µM
  TGI: 35.6 µM
U251 CNS
  GI50: 7.29 µM
  TGI: 15.3 µM
UACC-257 melanoma
  GI50: 9.7 µM
  TGI: 26.5 µM
UACC-62 melanoma
  GI50: 6.43 µM
  TGI: 14 µM
UO-31 renal
  GI50: 13.3 µM
  TGI: > 50 µM
